# Data reported in paper PMC13544220, “Glycemic and bodyweight effects of GIPR coding variation reflect differences in surface expression and intrinsic functional impairment” (Science Advances, 2026).
# What was measured:
# Format in all cases: cell-based, human
# [1] = system: wild-type and variant SNAP-GIPR; assay: cADDis cAMP imaging in AD293 cells, ensemble, expression-matched and per decile
# How it was run: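 Transient SNAP-GIPR plus cADDis BacMam in AD293; 24 h; SNAP-Surface AF647 500 nM, 10 min RT; wide-field 10X imaging at 37°C in KRBH/6 mM glucose/0.1% BSA. Cells failing IBMX/FSK response criteria excluded.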
# [2] = system: wild-type and variant SNAP-GIPR; assay: Constitutive and agonist-mediated internalization, reversible SNAP-tag labelling, AD293 cells; conditions: 100 nM GIP
# How it was run: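 Surface SNAP-GIPR signal removable by Mesna was tracked by imaging before and 10 min after treatment in pH 8.6 TNE buffer. Internalization is the Mesna-resistant share of specific fluorescence.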
# [3] = system: wild-type and variant SNAP-GIPR; assay: Single-concentration GIP cAMP response by HTRF in AD293 cells; conditions: for HTRF cAMP: 100 nM GIP, AD293, 30 min, mean, n=8
# Protocol: All variants were tested in parallel on each occasion to control for transfection efficiency differences between experiments.
smiles,measurement,setting,value
"CC[C@H](C)[C@H](NC(=O)[C@H](CO)NC(=O)[C@H](Cc1ccc(O)cc1)NC(=O)[C@H](CC(=O)O)NC(=O)[C@H](CO)NC(=O)[C@@H](NC(=O)[C@H](Cc1ccccc1)NC(=O)[C@@H](NC(=O)CNC(=O)[C@H](CCC(=O)O)NC(=O)[C@H](C)NC(=O)[C@@H](N)Cc1ccc(O)cc1)[C@@H](C)O)[C@@H](C)CC)C(=O)N[C@@H](C)C(=O)N[C@@H](CCSC)C(=O)N[C@@H](CC(=O)O)C(=O)N[C@@H](CCCCN)C(=O)N[C@H](C(=O)N[C@@H](Cc1c[nH]cn1)C(=O)N[C@@H](CCC(N)=O)C(=O)N[C@@H](CCC(N)=O)C(=O)N[C@@H](CC(=O)O)C(=O)N[C@@H](Cc1ccccc1)C(=O)N[C@H](C(=O)N[C@@H](CC(N)=O)C(=O)N[C@@H](Cc1c[nH]c2ccccc12)C(=O)N[C@@H](CC(C)C)C(=O)N[C@@H](CC(C)C)C(=O)N[C@@H](C)C(=O)N[C@@H](CCC(N)=O)C(=O)N[C@@H](CCCCN)C(=O)NCC(=O)N[C@@H](CCCCN)C(=O)N[C@@H](CCCCN)C(=O)N[C@@H](CC(N)=O)C(=O)N[C@@H](CC(=O)O)C(=O)N[C@@H](Cc1c[nH]c2ccccc12)C(=O)N[C@@H](CCCCN)C(=O)N[C@@H](Cc1c[nH]cn1)C(=O)N[C@@H](CC(N)=O)C(=O)N[C@H](C(=O)N[C@H](C(=O)N[C@@H](CCC(N)=O)C(=O)O)[C@@H](C)O)[C@@H](C)CC)C(C)C)[C@@H](C)CC [GIP, glucose-dependent insulinotropic polypeptide, reference compound]",cADDis cAMP response at low own expression,"[1]; AD293, 100 pM GIP, E354Q (lesser extent A207V, E252D, A268V)",increased responses relative to the wild type
same,"cADDis cAMP response, expression-matched","[1]; AD293, 100 pM GIP, R101H, S64A, R217L, L262H, L304R",at least partly restored to wild-type levels
same,cADDis cAMP response at highest own expression,"[1]; AD293, 100 pM GIP, R136W, R131S, T116R, S64A",wild type–like responses
same,"cADDis cAMP response, expression-matched","[1]; AD293, 100 pM GIP, all variants with reduced ensemble response",still showed LoF
same,"cADDis cAMP response, expression-matched","[1]; AD293, 100 pM and 100 nM GIP, R183Q, R190Q, D66G, E288G",no rescue of function
same,GIP-induced increase in internalization,"[2]; R190Q, R101H, E288G, D66G, R183Q, either/both AD293 and INS-1",statistically significant reductions in internalization
same,internalization,"[2]; most variants, AD293 and INS-1",wild type–like internalization
same,HTRF cAMP,[3]; A207V,1.3964 vs. experimental average
same,HTRF cAMP,[3]; A268V,1.283 vs. experimental average
same,cAMP response,"[3]; AD293, 100 pM GIP, E252D and A268V",GoF cAMP responses
same,cAMP response,"[3]; AD293, 100 pM GIP, E354Q",increased response
same,cAMP response,"[3]; AD293, 100 pM GIP, R136W and R131S",reduced cAMP response
same,cAMP response,"[3]; AD293, 100 pM and 100 nM GIP, 10 variants with lowest surface expression",reduced cAMP responses
same,cAMP response at higher concentration,"[3]; AD293, 100 nM GIP, S64A, R217L, L262H",at least a partially restored response
same,HTRF cAMP,[3]; D66G,0.328 vs. experimental average
same,HTRF cAMP,[3]; E252D,1.787 vs. experimental average
same,HTRF cAMP,[3]; E288G,0.3648 vs. experimental average
same,HTRF cAMP,[3]; E354Q,1.4229 vs. experimental average
same,HTRF cAMP,[3]; E463Q,1.311 vs. experimental average
same,HTRF cAMP,[3]; G438S,1.655 vs. experimental average
same,HTRF cAMP,[3]; I378M,1.479 vs. experimental average
same,HTRF cAMP,[3]; I403V,1.595 vs. experimental average
same,HTRF cAMP,[3]; L100F,1.598 vs. experimental average
same,HTRF cAMP,[3]; L262H,1.14 vs. experimental average
same,HTRF cAMP,[3]; L262V,1.331 vs. experimental average
same,HTRF cAMP,[3]; L304R,0.7364 vs. experimental average
same,HTRF cAMP,[3]; R101H,0.2474 vs. experimental average
same,HTRF cAMP,[3]; R131S,1.306 vs. experimental average
same,HTRF cAMP,[3]; R136W,1.324 vs. experimental average
same,HTRF cAMP,[3]; R183Q,0.2411 vs. experimental average
same,HTRF cAMP,[3]; R190Q,0.2205 vs. experimental average
same,HTRF cAMP,[3]; R196G,1.594 vs. experimental average
same,HTRF cAMP,[3]; R217L,1.142 vs. experimental average
same,HTRF cAMP,[3]; R300W,1.632 vs. experimental average
same,HTRF cAMP,[3]; R336P,1.143 vs. experimental average
same,HTRF cAMP,[3]; R341P,0.1915 vs. experimental average
same,HTRF cAMP,[3]; R404H,1.255 vs. experimental average
same,HTRF cAMP,[3]; S64A,1.061 vs. experimental average
same,HTRF cAMP,[3]; S415G,1.323 vs. experimental average
same,HTRF cAMP,[3]; S415I,1.113 vs. experimental average
same,HTRF cAMP,[3]; S447T,1.418 vs. experimental average
same,HTRF cAMP,[3]; T116R,1.485 vs. experimental average
same,HTRF cAMP,[3]; WT,1.495 vs. experimental average
